Experimental data published in patent US6967212B2, “Substituted azole acid derivatives useful as antidiabetic and antiobesity agents and method” (Bristol-Myers Squibb Company, priority 2001, dated 2005).
Marks after values point to notes of the source that are not given here.

Tests used:
[1] = target: T1, human PPARγ ligand binding domain (Homo sapiens, UniProt P37231); experiment: PPARγ ligand binding study with purified ligand binding domain; conditions: competition with labeled PPARγ ligand BMS-compound A
T1 sequence (P37231 238-503 limits assumed): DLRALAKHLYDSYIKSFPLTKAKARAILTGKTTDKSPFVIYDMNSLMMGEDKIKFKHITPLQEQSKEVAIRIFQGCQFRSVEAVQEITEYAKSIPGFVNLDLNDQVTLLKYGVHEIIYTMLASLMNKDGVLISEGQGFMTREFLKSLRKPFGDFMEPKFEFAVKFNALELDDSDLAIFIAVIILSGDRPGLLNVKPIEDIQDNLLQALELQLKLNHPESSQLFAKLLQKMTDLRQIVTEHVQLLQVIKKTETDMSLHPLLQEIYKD
From the text: Compound Y is a compound synthesized by the scheme outlined in Example 1 herein.

[2] = target: T2, human PPARα ligand binding domain (Homo sapiens, UniProt Q07869); experiment: PPARα ligand binding study with purified ligand binding domain; conditions: competition with labeled PPARα ligand BMS-compound B
T2 sequence (Q07869 239-466 limits assumed): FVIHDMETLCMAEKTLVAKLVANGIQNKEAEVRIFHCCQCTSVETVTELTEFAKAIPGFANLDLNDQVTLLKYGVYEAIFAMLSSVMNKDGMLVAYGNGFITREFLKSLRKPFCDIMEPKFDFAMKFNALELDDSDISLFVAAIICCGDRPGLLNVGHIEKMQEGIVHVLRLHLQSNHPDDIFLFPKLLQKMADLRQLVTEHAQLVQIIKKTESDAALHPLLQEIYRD
From the text: FIG. 1B: Illustrates the binding of a labeled authentic PPARα ligand (BMS-compound B) to human PPARα binding domain.
Compound Y is a compound synthesized by the scheme outlined in Example 1 herein. […] The in vitro ligand binding studies with purified ligand binding domain thus show the ability of Compound Y to bind potently to both PPARγ and PPARα. It is however, well known for the nuclear hormone receptor family of transcription factors that (PPARs are members of this family) that a compound which potently binds to (i.e. a ligand) can act as an agonist (ligand which activates) and an antagonist (ligand which inactivates the receptor).

[3] = test system: mouse 3T3-L1 pre-adipocytes; experiment: Inhibition of rosiglitazone induced differentiation of 3T3-L1 pre-adipocytes (glycerol release); assay type: cell-based; conditions: rosiglitazone induced differentiation of 3T3-L1 cells
Procedure: PPARγ has been considered a major trigger for the adipocyte differentiation process (see Tontonoz et al., Current Biology, 571-576, 1995).
5×10^5 3T3-L1 cells per plate were added to 96 well plates and cultured in DMEM-high glucose and 10% FBS medium for two days, before induction. Cells were induced for 48 hr with 1 μm dexamethasone, 5 μg/ml insulin, and […] isobutylmethylxanthine (IBMX) in the same medium. […] After a total of 5 days incubation, 4 μl of media from each well were collected and diluted into 40 μl of H2O in 96 well ELISA plate, 300 μl of Triglycerides Blank Reagent (Bayer Diagnostics) was added into each well and incubated for 5 min at room temperature. […] The ED50 values were calculated using standard equations for mid-point of the activity inhibition curves.

[4] = target: PPARγ (Chlorocebus sabaeus, UniProt A0A0D9RBU3); experiment: Inhibition of rosiglitazone induced SEAP reporter transactivation in CV-1 cells; assay type: cell-based, primate; conditions: read-out: ED50 for inhibition of rosiglitazone induced transactivation of SEAP gene, PPAR responsive SEAP reporter
PPARγ, sequence (A0A0D9RBU3 entry or part of it): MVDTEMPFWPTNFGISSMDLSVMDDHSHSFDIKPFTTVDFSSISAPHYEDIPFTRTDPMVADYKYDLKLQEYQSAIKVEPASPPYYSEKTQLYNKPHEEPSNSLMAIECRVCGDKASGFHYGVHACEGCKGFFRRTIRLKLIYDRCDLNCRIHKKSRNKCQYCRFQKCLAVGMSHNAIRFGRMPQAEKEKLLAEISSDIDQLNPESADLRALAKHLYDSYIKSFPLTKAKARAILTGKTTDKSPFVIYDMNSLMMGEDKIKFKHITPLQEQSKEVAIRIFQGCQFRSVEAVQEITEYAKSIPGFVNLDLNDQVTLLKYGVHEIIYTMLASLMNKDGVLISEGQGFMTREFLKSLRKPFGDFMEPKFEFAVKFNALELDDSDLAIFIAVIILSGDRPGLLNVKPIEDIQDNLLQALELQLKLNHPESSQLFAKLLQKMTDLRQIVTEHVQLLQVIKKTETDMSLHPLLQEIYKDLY
From the text: The established CV-1 cells (primate kidney origin), that show expression of endogenous PPARγ, were stably transfected with a PPAR responsive secreted alkaline phosphatase (SEAP) reporter gene.
CV-1 cells (these cell express endogenous PPARγ gene) were transfected with a 3×PPRE-SEAP reporter gene DNA construct and stable colonies were selected, expanded and tested for responsiveness to compounds using standard protocols. SEAP reporter gene constructs were made by inserting 3 repeats of the rat fatty acid binding protein PPRE including the 7 nucleotides immediately 5′ to the SV40 early minimal promoter of pSEAP2 (Clontech). 1.2×10^6 CV-1/PPRE-SEAP cells were plated in a 96 well plate one day before compound addition. […] 150 μl aliquots of each concentration were delivered to two non-adjacent wells. […] Media was collected in fresh 96 well plates 40 hrs following incubation with compounds and assayed for SEAP activity. […] The plate was incubated for 5′ in the dark, and then the fluorescence measured in a CytoFluor series 4000 plate reader (Perseptive Biosystems): excitation filter, 450/50 nm; emission filter, 580/50 nm; 8 cycles, 1 minute/cycle, 3 reads/well/cycle. […] The ED50 values were calculated using standard equations for mid-point of the activity inhibition curves.

[5] = target: T3, PPARα (Homo sapiens, UniProt Q07869); experiment: PPARα dependent SEAP reporter transactivation in HepG2 cells; assay type: cell-based
T3 construct: HepG2 cells (human liver origin), that express endogenous PPARα gene were stably transfected with a PPAR responsive SEAP reporter gene; endogenous in cells; host or cells: HepG2 cells stably transfected with a PPAR responsive SEAP reporter
T3 sequence (Q07869 1-468): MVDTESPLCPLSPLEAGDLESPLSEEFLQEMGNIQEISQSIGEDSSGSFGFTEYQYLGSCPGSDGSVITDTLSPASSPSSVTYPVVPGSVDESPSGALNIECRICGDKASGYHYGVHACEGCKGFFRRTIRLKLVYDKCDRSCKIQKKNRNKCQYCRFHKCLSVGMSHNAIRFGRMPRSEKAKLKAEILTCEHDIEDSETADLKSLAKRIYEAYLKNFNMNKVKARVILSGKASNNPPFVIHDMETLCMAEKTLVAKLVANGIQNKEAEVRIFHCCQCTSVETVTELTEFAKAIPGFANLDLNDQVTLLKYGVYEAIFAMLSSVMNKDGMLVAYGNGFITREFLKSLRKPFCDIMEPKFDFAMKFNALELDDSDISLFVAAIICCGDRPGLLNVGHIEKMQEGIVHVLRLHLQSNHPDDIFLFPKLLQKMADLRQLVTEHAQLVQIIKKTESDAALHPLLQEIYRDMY
From the text: HepG2 cells (human liver origin), that express endogenous PPARα gene were stably transfected with a PPAR responsive SEAP reporter gene.
Reporter gene constructs were made by inserting either 3 repeats of the rat fatty acid binding protein PPRE including the 7 nucleotides immediately 5′, or 4 repeats of the gal4 response element upstream of the SV40 early minimal promoter of pSEAP2 (Clontech), 3×PPRE-SEAP and gal4-SEAP respectively. The chimeric receptor was made by cloning the cDNA encoding the ligand binding domain of human PPAR α in frame and 3′ to the gal4 DNA binding domain (amino acids 1-47) in the mammalian bicistronic expression vector pIRESlneo (Clontech), gal4-PPAR α. […] Following the incubation, media was removed, and endogenous phosphatases were inactivated as indicated above and SEAP activity in 25 μl aliquots of processed media was assayed in clear bottom, black 96 well plate (Falcon) by the addition of 100 μl Attophos reagent (Promega), incubation for 5 minutes in the dark at room temperature, and measuring the increase in fluorescence (excitation 450 nm, emission 580 nm) in a CytoFluor series 4000 plate reader (Perseptive Biosystems) 8 cycles, 1 minute/cycle. The relative rates of fluorescence emission were calculated as fold increase over DMSO control. […] The ED50 values were calculated using standard equations for mid-point of the activity curves.

[6] = test system: Gene expression in WAT; experiment: Gene expression profiling of white adipose tissue of treated db/db mice; assay type: in vivo; conditions: obese diabetic db/db mice
From the text: Examples of such genes include adipophilin and keratinocyte fatty acid binding protein, the gene products of these genes are involved in intracellular fatty acid trafficking).
Adipose (fat) tissue is a major place of synthesis of PAI-1, a risk factor for thrombosis, angiotensinogen precursor, a risk factor for hypertension and renin, a risk factor for hypertension (see Ahima and Flier, TEM, 11: 327-332, 2000).

[7] = test system: obese diabetic db/db mice; experiment: Plasma glucose and lipids in treated obese diabetic db/db mice; assay type: in vivo; conditions: 3 mg/kg/day
From the text: As illustrated in Table 3 treatment of obese diabetic db/db mice with the dual PPARγ antagonist/PPARα agonist Compound Y results in no significant change in plasma glucose and a significant decrease in plasma triglycerides and free fatty acids levels. As indicated before, changes in lipid and glycemic conditions are two significant potential concerns of reducing PPARγ activity. Based on the study described here it is concluded that obese mammals can be safely treated with a dual PPARγ antagonist/PPARα agonist. The reduction in plasma triglycerides and free fatty acids are likely due to the […] activity of Compound Y.

[8] = test system: diet induced obese mice; experiment: Diet induced obese mice: body composition, plasma and liver parameters; assay type: in vivo
From the text: As indicated before, changes in lipid and glycemic conditions are two potential concerns of reducing PPARγ activity. Based on the study described here it is concluded that safe reduction of fat mass in an obese diabetic mammal (including human) is possible through administration of a dual PPARγ antagonist/PPARα agonist. This feature is in contrast to the observed hyperlipidemia and hyperglycemia in lipodystrophic patients and in patients with severe mutations in PPARγ gene.
In obese mice, as in obese human, the liver lipid level is elevated. Often, this is accompanied by an increase in plasma liver enzyme ALT level indicating to liver damage. Upon treatment with dual PPARγ antagonist/PPARα agonist Compound Y there was a substantial reduction in liver triglyceride content, although not reaching statistical significance, which was accompanied by a significant reduction in plasma liver enzyme ALT levels. Both these changes are indicative of improvement in liver function as a result of stimulation of PPARα mediated fatty acid oxidation and reduction of lipid synthesis leading to reduced lipid content (see. Torra et al., Current Opinion in Lipidology, 10: 151-159, 1999; Kersten et al., Nature, 405: 421424, 2000).
C57BL/6 mice were fed a diet rich in fat (40%) and sucrose (40%) (see, York {Genetic models of obesity} and Sclafani {Dietary models of obesity}, both in Obesity, Bjorntorp and Brodoff eds. JB Lippincott Company, 1992; McIntosh and Pederson; McNeill. eds. CRC press LLC, 337-398, 1999; Farrelly et al., Proc. Natl. Acad. Sci. 96: 14511-14516, 1999). Under these dietary conditions, C57BL/6 mice gain considerable body weight and become obese. These mice were treated with a dual PPARγ antagonist/PPARα agonist (dose 0.01 to 100 mg/kg/day), administered in a pharmacologically acceptable vehicle (such as but not limited to, 5% CM-cellulose) through orally, intravenous, subcutaneous or intraportal injection, or mixed with food or water, acutely or over an extended period of time. During the course of the study, various parameters such as water and food consumption, body weight gain, body composition by dual emission X-ray analyzer (DEXA, this instrument accurately measures body fat mass, body lean muscle mass and body bone mineral content), body temperature was measured by standard methods. Through tail vein bleeding, blood was collected in heparin-EDTA coated tubes to prevent clotting and blood plasma was separated and analyzed for glucose, free fatty acids, triglycerides and cholesterol using reagent kits available from Roche Diagnostics in a COBAS-MIRA instrument. Insulin and leptin are measured by commercially available ELISA kits. Compounds that act to reduce body weight and or decrease glucose were selected. At the end of the treatment period animals were euthanized by brief exposure to CO2 and internal organs such as liver and white adipose tissue were harvested for additional analysis. These analyses may include, but not limited to, determination of lipid content, and effect on various PPARγ and PPARα target gene expression.

[9] = 10 mg/kg/day once a day, 3 weeks
[10] = 10 mg/kg/day, 3 weeks, P < 0.05
[11] = 3 weeks at 10 mg/kg/day, once a day

With `Cc1oc(-c2ccccc2)nc1CCOc1cccc(Cc2nn(-c3ccccc3)nc2C(=O)O)c1` [Compound Y] the IC50 [1] was 69 nM, the IC50 [2] was 69 nM and the “ED50 for inhibition of differentiation” value [3] was 9900 nM. The EC50 [4] was 1500 nM, the EC50 [5] was 587 nM and the “Adipophilin gene expression in WAT” value [6] was 4.1. The “Angiotensinogen precursor gene expression in WAT” value [6] was 0.46, the “Glycerol-3 PO4 dehydrogenase gene expression in WAT” value [6] was 0.39 and the “HMGic gene expression in WAT” value [6] was 2.2. The “Keratinocyte fatty acid binding protein gene expression in WAT” value [6] was 3.3, the “PAI-1 gene expression in WAT” value [6] was 0.45 and the Free fatty acids [7] was 0.76 ± 0.12 meq/L. For the same compound, the Glucose [7] was 683.0 ± 25.2 mg/dL, the “Glucose, change versus vehicle” value [7] was −13% and the Triglyceride [7] was 145.3 ± 12.5 mg/dL. For the same compound, the “Free fatty acids, change versus vehicle” value ([7]; p < 0.05) was −36%*, the “Triglyceride, change versus vehicle” value ([7]; p < 0.05) was −45%* and the “plasma lipid (free fatty acids, triglycerides and cholesterol) and glycemic (glucose and insulin) parameters (in words)” value [8] was “very little change”. The Liver triglycerides ([8]; 10 mg/kg/day) was 55.4 ± 7.0 mg/g, the “% Fat body mass” value [8, 9] was 41.5 ± 1.8% and the “% Lean body mass” value [8, 9] was 56.0 ± 1.8%. For the same compound, the “% Fat body mass, change versus vehicle” value [8, 10] was “(−12%)*”, the “% Lean body mass, change versus vehicle” value [8, 10] was “(+11%)*” and the “ALT, change versus vehicle” value ([8]; 10 mg/kg/day, P < 0.05) was “(−38%)*”. For the same compound, the “Liver triglycerides, change versus vehicle” value ([8]; 10 mg/kg/day, not statistically significant) was “(−24%)”, the “body weight (in words)” value [8, 11] was “no significant reduction in body weight” and the “increase in lean body mass” value [8, 11] was 14%. For the same compound, the “reduction of body fat mass” value [8, 11] was 15%, the ALT ([8]; plasma, 10 mg/kg/day) was 98.0 ± 12.6 IU/L and the Cholesterol ([8]; plasma, 10 mg/kg/day) was 270.4 ± 9.4 mg/dL. It also gave a Glucose ([8]; plasma, 10 mg/kg/day) of 260.7 ± 12.3 mg/dL, an Insulin ([8]; plasma, 10 mg/kg/day) of 8.2 ± 1.2 ng/mL and a Triglyceride ([8]; plasma, 10 mg/kg/day) of 105.5 ± 8.1 mg/dL.
In the case of `CCCCCCCC1SC(CC(=O)N(Cc2ccccc2)Cc2ccccc2)C(=O)N1CCCCc1ccc(C(=O)O)cc1` (stereo not drawn) [GW0072, reference compound], the IC50 [1] is reported as 280 nM and the “ED50 for inhibition of differentiation” value [3] is reported as 585 nM.
`CCCCCCCN(CCc1ccc(O[C@@](C)(CC)C(=O)O)cc1)C(=O)Nc1ccc(F)cc1F` [GW-2331, reference compound] gave an IC50 [2] of 410 nM.
In the case of `CN(CCOc1ccc(CC2SC(=O)NC2=O)cc1)c1ccccn1` (stereo not drawn) [rosiglitazone, reference compound], the “G-protein coupled receptor 26 gene expression in WAT” value [6] is reported as 4.3 and the “Renin gene expression in WAT” value [6] is reported as 13.9.
With BMS-250773 [reference compound] the EC50 [5] was 63 nM.
